Assays:
[1] = target: Human immunodeficiency virus type 1 protease (Human immunodeficiency virus 1, UniProt Q72874); assay: Inhibition of wild type HIV1 protease using Arg-Glu (EDANS)-Ser-Gln-Asn-Tyr-Pro-Ile-Val-Gln-Lys(DABCYL)-Arg as substrate preincubated for 20 to 30 mins followed by substrate addition and measured for 10 mins by FRET assay
[2] = test system: Human immunodeficiency virus 1; assay: Antiviral activity against HIV1; type: functional, organism-based
[3] = Cytotoxicity against HEK293T cells assessed as reduction in cell viability incubated for 24 hrs by CCK8 assay; type: cell-based, HEK-293T; details: human
[4] = Selectivity index, ratio of CC50 for cytotoxicity against HEK293T cells to IC50 of antiviral activity against HIV1; type: toxicity, cell-based; details: human, read-out: Ratio CC50/IC50
[5] = test system: Human immunodeficiency virus 1; assay: (§1) Antiviral activity against HIV1 Env-deficient VSV-G pseudotyped virus infected in human SUP-T1 cells infected with supernatant of compound treated virus-producing 293T cells assessed as inhibition of late stage viral production at 10 uM treated for 48 hrs with virus-producing 293T cells followed by SUP-T1 cells infection for 48 hrs by single-round infection luciferase assay relative to control; type: functional; details: Human immunodeficiency virus 1, SUP-T1, time 96 hrs
[6] = test system: Human immunodeficiency virus 1; assay: as §1, with “100 nM” for “10 uM”; type: functional; details: Human immunodeficiency virus 1, SUP-T1, time 96 hrs
[7] = test system: Human immunodeficiency virus 1; assay: Antiviral activity against HIV1 NL4-3 infected in human MT4 cells assessed as reduction in viral replication by measuring reduction in p24 Gag production by chemiluminescent-EIA; type: functional, organism-based; details: Human immunodeficiency virus 1, NL4-3, MT4
[8] = test system: Human immunodeficiency virus 1; assay: Antiviral activity against DRV resistant HIV1 infected in human MT4 cells assessed as reduction in viral replication by measuring reduction in p24 Gag production by chemiluminescent-EIA; type: functional, organism-based; details: Human immunodeficiency virus 1, MT4
[9] = test system: Human immunodeficiency virus 1; assay: Antiviral activity against HIV1 subtype C isolate 11928; type: functional, organism-based
[10] = test system: Human immunodeficiency virus 1; assay: Antiviral activity against HIV1 subtype C isolate 11929; type: functional, organism-based; details: Human immunodeficiency virus 1, subtype C isolate 11929
[11] = test system: Human immunodeficiency virus 1; assay: Antiviral activity against HIV1 subtype C isolate 11941; type: functional, organism-based
[12] = test system: Human immunodeficiency virus 1; assay: Antiviral activity against HIV1 subtype C isolate-plndie; type: functional, organism-based; details: Human immunodeficiency virus 1, subtype C isolate-plndie
[13] = test system: Human immunodeficiency virus 1; assay: Antiviral activity against HIV1 (NL4-3) Env-deficient VSV-G pseudotyped virus infected in human SUP-T1 cells assessed as inhibition of early stage viral production at 10 uM measured after 48 hrs by luciferase assay relative to control; type: functional; details: Human immunodeficiency virus 1, NL4-3, SUP-T1
[14] = Resistance index, ratio of IC50 for DRV resistant HIV1 infected in human MT4 cells to IC50 for HIV1 NL4-3 infected in human MT4 cells; type: functional
[15] = target: Human immunodeficiency virus type 1 protease (Human immunodeficiency virus 1) (UniProt Q72874); assay: Potency index, ratio of DRV Ki to test compound Ki for inhibition of wild type HIV1 protease using Arg-Glu (EDANS)-Ser-Gln-Asn-Tyr-Pro-Ile-Val-Gln-Lys(DABCYL)-Arg as substrate preincubated for 20 to 30 mins followed by substrate addition and measured for 10 mins by FRET assay; details: time 30-40 min

Question: With `CC(C)CN(C[C@@H](O)[C@H](Cc1ccccc1)NC(=O)[C@@H]1CCCNC1)S(=O)(=O)c1ccc(N)cc1` as the compound, how does the Ki [1] read?
Answer: 0.27 nM

Question: And the IC50 [2]?
Answer: 1.21 nM

Question: And the CC50 at 24 h [3]?
Answer: > 100000 nM

Question: What about the selectivity ratio [4] of the same compound?
Answer: > 82600

Question: And the inhibition at 10 µM [5]?
Answer: 81%

Question: For `CC(C)CN(C[C@@H](O)[C@H](Cc1ccccc1)NC(=O)[C@H]1CCCNC1)S(=O)(=O)c1ccc(N)cc1`, which Ki [1] is on record?
Answer: 40.5 nM

Question: And the IC50 [2]?
Answer: 181 nM

Question: For `CC(C)CN(C[C@@H](O)[C@H](Cc1ccccc1)NC(=O)[C@@H]1CCCCN1)S(=O)(=O)c1ccc(C(F)(F)F)cc1`, which Ki [1] is on record?
Answer: 4.61 nM

Question: What about the IC50 [2] of the same compound?
Answer: 20.6 nM

Question: With `CC(C)CN(C[C@@H](O)[C@H](Cc1ccccc1)NC(=O)O[C@H]1CO[C@H]2OCC[C@H]21)S(=O)(=O)c1ccc(N)cc1` as the compound, how does the CC50 at 24 h [3] read?
Answer: > 100000 nM

Question: What about the inhibition at 0.1 µM [6] of the same compound?
Answer: 100%

Question: And the EC50 [7]?
Answer: 3.9 nM

Question: And the EC50 [8]?
Answer: 240 nM

Question: What about the EC50 [9] of the same compound?
Answer: 2010 nM

Question: What about the EC50 [10] of the same compound?
Answer: 3630 nM

Question: And the EC50 [11]?
Answer: 910 nM

Question: What about the EC50 [12] of the same compound?
Answer: 1260 nM

Question: For `COc1ccc(S(=O)(=O)N(CC(C)C)C[C@@H](O)[C@H](Cc2ccccc2)NC(=O)OC[C@@H]2CCCNC2)cc1`, which Ki [1] is on record?
Answer: 0.1 nM

Question: And the IC50 [2]?
Answer: 0.43 nM

Question: And the CC50 at 24 h [3]?
Answer: > 100000 nM

Question: What about the selectivity ratio [4] of the same compound?
Answer: > 233000

Question: And the inhibition at 10 µM [5]?
Answer: 94%

Question: For `COc1ccc(S(=O)(=O)N(CC(C)C)C[C@@H](O)[C@H](Cc2ccccc2)NC(=O)OC[C@H]2CCCNC2)cc1`, which Ki [1] is on record?
Answer: 0.3 nM

Question: And the IC50 [2]?
Answer: 1.35 nM

Question: And the CC50 at 24 h [3]?
Answer: > 100000 nM

Question: What about the selectivity ratio [4] of the same compound?
Answer: > 74100

Question: Which Ki [1] does the source give for `COc1ccc(S(=O)(=O)N(CC(C)C)C[C@@H](O)[C@H](Cc2ccccc2)NC(=O)[C@@H]2CCCCN2)cc1` here?
Answer: 0.33 nM

Question: What about the IC50 [2] of the same compound?
Answer: 1.46 nM

Question: What about the CC50 at 24 h [3] of the same compound?
Answer: > 100000 nM

Question: And the selectivity ratio [4]?
Answer: > 68500

Question: And the inhibition at 10 µM [5]?
Answer: 79%

Question: Which Ki [1] does the source give for `COc1ccc(S(=O)(=O)N(CC(C)C)C[C@@H](O)[C@H](Cc2ccccc2)NC(=O)[C@@H]2CCCN(C)C2)cc1` here?
Answer: 0.04 nM

Question: What about the IC50 [2] of the same compound?
Answer: 0.18 nM

Question: What about the CC50 at 24 h [3] of the same compound?
Answer: > 100000 nM

Question: And the selectivity ratio [4]?
Answer: > 556000

Question: And the inhibition at 10 µM [5]?
Answer: 98%

Question: And the inhibition at 10 µM [13]?
Answer: 5%

Question: Which Ki [1] does the source give for `CC(C)CN(C[C@@H](O)[C@H](Cc1ccccc1)NC(=O)[C@@H]1CCCN(C)C1)S(=O)(=O)c1ccc(C(F)(F)F)cc1` here?
Answer: 0.19 nM

Question: What about the IC50 [2] of the same compound?
Answer: 0.84 nM

Question: And the CC50 at 24 h [3]?
Answer: > 100000 nM

Question: And the selectivity ratio [4]?
Answer: > 119000

Question: What about the inhibition at 10 µM [5] of the same compound?
Answer: 88%

Question: Which results are given for `CC(C)CN(C[C@@H](O)[C@H](Cc1ccccc1)NC(=O)[C@@H]1CCCNC1)S(=O)(=O)c1ccc(C(F)(F)F)cc1`?
Answer: Ki [1]: 0.1 nM; IC50 [2]: 0.45 nM; CC50 at 24 h [3]: > 100000 nM; selectivity ratio [4]: > 222000

Question: With `COc1ccc(S(=O)(=O)N(CC(C)C)C[C@@H](O)[C@H](Cc2ccccc2)NC(=O)C2CCNCC2)cc1` as the compound, how does the Ki [1] read?
Answer: 0.55 nM

Question: What about the IC50 [2] of the same compound?
Answer: 2.45 nM

Question: What about the CC50 at 24 h [3] of the same compound?
Answer: > 100000 nM

Question: And the selectivity ratio [4]?
Answer: > 40800

Question: Which Ki [1] does the source give for `CC(C)CN(C[C@@H](O)[C@H](Cc1ccccc1)NC(=O)C1CCNCC1)S(=O)(=O)c1ccc(C(F)(F)F)cc1` here?
Answer: 5.93 nM

Question: What about the IC50 [2] of the same compound?
Answer: 26.5 nM

Question: Which results are given for `CC(C)CN(C[C@@H](O)[C@H](Cc1ccccc1)NC(=O)C1CCNCC1)S(=O)(=O)c1ccc(N)cc1`?
Answer: Ki [1]: 5.52 nM; IC50 [2]: 24.6 nM

Question: Which results are given for `CC(C)CN(C[C@@H](O)[C@H](Cc1ccccc1)NC(=O)OC[C@@H]1CCCNC1)S(=O)(=O)c1ccc(N)cc1`?
Answer: Ki [1]: 0.28 nM; IC50 [2]: 1.27 nM; CC50 at 24 h [3]: > 100000 nM; selectivity ratio [4]: > 78700; inhibition at 10 µM [5]: 71%

Question: With `CC(C)CN(C[C@@H](O)[C@H](Cc1ccccc1)NC(=O)OC[C@H]1CCCNC1)S(=O)(=O)c1ccc(N)cc1` as the compound, how does the Ki [1] read?
Answer: 1.01 nM

Question: And the IC50 [2]?
Answer: 4.53 nM

Question: And the CC50 at 24 h [3]?
Answer: > 100000 nM

Question: And the selectivity ratio [4]?
Answer: > 22100

Question: Which results are given for `CC(C)CN(C[C@@H](O)[C@H](Cc1ccccc1)NC(=O)[C@@H]1CCCCN1)S(=O)(=O)c1ccc(N)cc1`?
Answer: Ki [1]: 2.03 nM; IC50 [2]: 9.04 nM; CC50 at 24 h [3]: > 100000 nM; selectivity ratio [4]: > 11100

Question: Which Ki [1] does the source give for `CC(C)CN(C[C@@H](O)[C@H](Cc1ccccc1)NC(=O)[C@H]1CCCNC1)S(=O)(=O)c1ccc(C(F)(F)F)cc1` here?
Answer: 43.9 nM

Question: And the IC50 [2]?
Answer: 196 nM

Question: With `COc1ccc(S(=O)(=O)N(CC(C)C)C[C@@H](O)[C@H](Cc2ccccc2)NC(=O)[C@@H]2CCCNC2)cc1` as the compound, how does the Ki [1] read?
Answer: 0.029 nM

Question: And the IC50 [2]?
Answer: 0.13 nM

Question: And the CC50 at 24 h [3]?
Answer: > 100000 nM

Question: What about the selectivity ratio [4] of the same compound?
Answer: > 769000

Question: What about the inhibition at 10 µM [5] of the same compound?
Answer: 99%

Question: And the inhibition at 10 µM [13]?
Answer: 3%

Question: And the EC50 [7]?
Answer: 500 nM

Question: What about the EC50 [8] of the same compound?
Answer: 900 nM

Question: And the EC50 [9]?
Answer: 49400 nM

Question: What about the EC50 [10] of the same compound?
Answer: 14800 nM

Question: What about the EC50 [11] of the same compound?
Answer: 11800 nM

Question: What about the EC50 [12] of the same compound?
Answer: 26300 nM

Question: And the “Ratio IC50” value [14]?
Answer: 1.8

Question: And the Ratio Ki [15]?
Answer: 6

Question: Which Ki [1] does the source give for `CC(C)CN(C[C@@H](O)[C@H](Cc1ccccc1)NC(=O)[C@@H]1CCCN(C)C1)S(=O)(=O)c1ccc(N)cc1` here?
Answer: 0.3 nM

Question: What about the IC50 [2] of the same compound?
Answer: 1.35 nM

Question: What about the CC50 at 24 h [3] of the same compound?
Answer: > 100000 nM

Question: What about the selectivity ratio [4] of the same compound?
Answer: > 74100

Question: And the inhibition at 10 µM [5]?
Answer: 83%

Question: For `CC(C)CN(C[C@@H](O)[C@H](Cc1ccccc1)NC(=O)OC[C@@H]1CCCNC1)S(=O)(=O)c1ccc(C(F)(F)F)cc1`, which Ki [1] is on record?
Answer: 1.73 nM

Question: What about the IC50 [2] of the same compound?
Answer: 7.71 nM

Question: And the CC50 at 24 h [3]?
Answer: > 100000 nM

Question: What about the selectivity ratio [4] of the same compound?
Answer: > 13000

Question: Which Ki [1] does the source give for `COc1ccc(S(=O)(=O)N(CC(C)C)C[C@@H](O)[C@H](Cc2ccccc2)NC(=O)[C@H]2CCCNC2)cc1` here?
Answer: 9.99 nM

Question: What about the IC50 [2] of the same compound?
Answer: 44.6 nM

Question: What about the inhibition at 10 µM [5] of the same compound?
Answer: 93%

Question: Which Ki [1] does the source give for `CC(C)CN(C[C@@H](O)[C@H](Cc1ccccc1)NC(=O)OC[C@H]1CCCNC1)S(=O)(=O)c1ccc(C(F)(F)F)cc1` here?
Answer: 2.61 nM

Question: And the IC50 [2]?
Answer: 11.7 nM

Question: What about the CC50 at 24 h [3] of the same compound?
Answer: > 100000 nM

Question: What about the selectivity ratio [4] of the same compound?
Answer: > 8580
